Laboratory results as given in patent US8637237B2, “Methods, compositions, and systems for the identification of species-specific or developmental stage-specific insecticides” (The University of North Carolina at Greensboro, priority 2003, dated 2014).

Molecular target: T1, VP16dEcR/RXR (Drosophila melanogaster, UniProt P34021)
T1 construct: expressed in transfected cells; host or cells: CHO
T1 sequence (P34021 252-878 limits assumed): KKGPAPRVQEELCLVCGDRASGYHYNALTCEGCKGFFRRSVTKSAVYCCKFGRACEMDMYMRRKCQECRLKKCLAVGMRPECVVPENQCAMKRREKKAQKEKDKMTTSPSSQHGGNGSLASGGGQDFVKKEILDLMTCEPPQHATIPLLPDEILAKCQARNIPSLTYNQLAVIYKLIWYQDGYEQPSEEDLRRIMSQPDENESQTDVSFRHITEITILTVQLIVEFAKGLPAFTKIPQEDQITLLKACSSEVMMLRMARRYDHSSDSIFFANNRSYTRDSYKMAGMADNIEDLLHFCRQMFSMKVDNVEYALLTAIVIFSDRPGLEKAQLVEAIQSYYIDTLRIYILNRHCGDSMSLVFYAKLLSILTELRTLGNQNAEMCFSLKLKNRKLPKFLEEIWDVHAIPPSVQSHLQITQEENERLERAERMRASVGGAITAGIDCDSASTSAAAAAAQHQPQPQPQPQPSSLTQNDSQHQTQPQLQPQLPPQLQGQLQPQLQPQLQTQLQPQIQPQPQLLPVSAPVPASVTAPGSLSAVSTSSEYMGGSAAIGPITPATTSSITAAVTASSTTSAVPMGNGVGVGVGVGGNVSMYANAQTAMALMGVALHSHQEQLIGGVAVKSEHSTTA
T1 sequence (P28700 1-467 partner): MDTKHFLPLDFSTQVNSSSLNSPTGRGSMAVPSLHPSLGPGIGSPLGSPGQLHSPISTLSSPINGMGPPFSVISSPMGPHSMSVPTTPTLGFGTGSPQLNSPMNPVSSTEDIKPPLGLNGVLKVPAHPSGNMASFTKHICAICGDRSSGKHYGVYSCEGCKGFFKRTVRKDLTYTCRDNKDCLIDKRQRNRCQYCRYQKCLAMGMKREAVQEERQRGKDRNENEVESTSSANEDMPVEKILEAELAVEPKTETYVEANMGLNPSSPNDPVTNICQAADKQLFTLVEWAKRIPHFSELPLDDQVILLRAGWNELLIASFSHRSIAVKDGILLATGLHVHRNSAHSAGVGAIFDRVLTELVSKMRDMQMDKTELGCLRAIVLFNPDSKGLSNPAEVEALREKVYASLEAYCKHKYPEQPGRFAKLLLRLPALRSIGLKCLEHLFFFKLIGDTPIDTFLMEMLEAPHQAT
Experiment: VP16dEcR with RXR, (EcRE)5-ΔMTV reporter in CHO cells
Type: cell-based
Parameters: key to MurA (inducibility): (+) designates a change in transcriptional level that exceeds 2.5-fold; (++) indicates a response at a lower dosage than other EcR forms
Procedure: These experiments employed a mammalian cell culture system using Chinese hamster ovary cells (CHO) to evaluate the transcriptional function of Drosophila melanogaster EcR and USP using methods described previously (U.S. Patent Application Publication No: 2005/0049230; Henrich et al, 2003). Cells were seeded in 6-well polypropylene culture plates (Falcon) with 10^5 cells per well on the day prior to transfection. Transfection was subsequently performed using either calcium phosphate (Kitareewan et al., 1996, Mol. Biol. Cell, 7:1153-1196) or a GenePorter reagent (Gene Therapy Systems, Inc; San Diego, Calif.) following manufacturer's protocols. Each well received 1.25 μg of (EcRE)5-ΔMTV-CAT (five copies of the hsp27 EcRE inserted into an mouse mammary tumor virus (MTV) promoter upstream of the chloramphenicol acetyltransferase (CAT) gene) or (EcRE)5-ΔMTV-LUC (the same promoter attached to firefly luciferase), 1.25 μg of pCH111 (SV40 early promoter linked to the β-galactosidase gene) to normalize CAT activity, and 0.25 μg of each expression plasmid (EcR, FXR, RXR, USP) that was tested. The cells were incubated with plasmid DNA for seven hours and then washed with 1×PBS. Muristerone A (murA; Alexis Biochemicals) or 20-hydroxyecdysone (20E; Sigma) dissolved in ethanol to a concentration of 10 mM was diluted as necessary to the final assay concentration (FAC) in 2 ml of fresh incubation medium that was then applied to the cells. Similarly, JHIII (Sigma) was dissolved in dimethyl sulfoxide (DMSO) to a concentration of 80 μM and diluted into the incubation medium to its final assay concentration (20, 40, 80, 160 μM). […] A corresponding volume of ethanol and DMSO were added to control cells for all experiments. […] Both β-galactosidase and CAT reporter activity were measured based on previously used methods (Kitareewan et al, 1996). […]
Transcriptional activity, measured as ^14C-chloramphenicol counts (for measuring CAT activity) or relative luciferase activity (RLU) was quantified for each cell lysate. […]

CC(C)(O)CC[C@@H](O)[C@](C)(O)[C@H]1CC[C@@]2(O)C3=CC(=O)[C@@H]4C[C@@H](O)[C@@H](O)C[C@]4(C)[C@H]3CC[C@]12C [20E, 20-hydroxyecdysone]
20E (inducibility) (10 μM 20E): + ((+) designates a change in transcriptional level that exceeds 2.5-fold)

COC(=O)/C=C(\C)CC/C=C(\C)CC[C@H]1OC1(C)C [JHIII, juvenile hormone III]
MurA + JHIII (JHIII potentiation) (0.1 μM murA + 80 μM JHIII): + ((+) indicates observed potentiation that exceeds 2-fold above the levels observed with ecdysteroid alone)

CC(C)CC[C@@H](O)[C@](C)(O)[C@H]1CC[C@@]2(O)C3=CC(=O)[C@]4(O)C[C@@H](O)[C@@H](O)C[C@]4(C)[C@H]3[C@H](O)C[C@]12C [murA, muristerone A]
MurA (inducibility) (0.1 μM murA): ++
